{
  "source": "paper doi:10.1101/2024.06.25.600616",
  "about": "“Presynaptic GABAA receptors control integration of nicotinic input onto dopaminergic axons in the striatum” (bioRxiv, 2024)",
  "system": "T1, nicotinic acetylcholine receptors (nAChRs) on dopaminergic axons (likely beta2 subunit-containing)",
  "T1 construct": "gene Chrnb2; native receptor on dopaminergic axons; with α4 and/or α6 nAChR subunits (native heteromer, not resolved)",
  "assay": "whole-cell axonal recording of ACh-puff depolarizations; IC50 from jGCaMP8s nicotinic component in striatal slices",
  "set-up": "species or system Mus musculus",
  "data": [
    {"smiles": "C=C(C)[C@@H]1[C@H]2OC(=O)[C@@H]1[C@]1(O)C[C@H]3OC34C(=O)O[C@H]2[C@@]41C.CC(C)(O)[C@@H]1[C@H]2OC(=O)[C@@H]1[C@]1(O)C[C@H]3OC34C(=O)O[C@H]2[C@@]41C", "note": "(stereo partly shown) [picrotoxin]", "values": [
      {"measurement": "IC50", "result": 108, "unit": "µM"}
    ]}
  ]
}
